This is an account of results in patent US12312370B2, “Immunoproteasome inhibitors” (Principia Biopharma Inc., priority 2017, dated 2025).

The structures appear in SMILES notation.

Assay [1] deals with constitutive proteasome β5c unit (Homo sapiens, UniProt P28074). In words: Caliper-based proteasome enzymatic activity assay, β5c. Format: biochemical. Conditions: human recombinant constitutive proteasome 0.3 nM, FAM-labeled peptide substrate 1 μM, rt 3 h; read-out: β5c subunit IC50.
Assay [2] addresses immunoproteasome LMP7/B5i subunit (Homo sapiens, UniProt P28062). Description: Caliper-based proteasome enzymatic activity assay, LMP7. Format: biochemical. The settings on record: human recombinant immunoproteasome 0.3 nM, FAM-labeled peptide substrate 1 μM, rt 3 h; read-out: LMP7 subunit IC50.

Consider `CC(C)(C)C=C(C#N)C(=O)N1CCC[C@@H]1COC[C@H](NCC(F)(F)F)C(=O)N[C@@H](Cc1ccccc1)B(O)O` [Example 24, (R)-1-((S)-3-(((R)-1-(2-cyano-4,4-dimethylpent-2-enoyl)pyrrolidin-2-yl)methoxy)-2-(2,2,2-trifluoroethylamino)propanamido)-2-phenylethylboronic acid], for which the IC50 in assay [1] was 166 nM; in assay [2], 26 nM.
As for `CC(C)C=C(C#N)C(=O)N(C)c1cccc(C[C@H](NCC(F)(F)F)C(=O)N[C@@H](Cc2ccccc2)B(O)O)c1` [Example 26, ((R)-1-((S)-3-(3-(2-cyano-N,4-dimethylpent-2-enamido)phenyl)-2-((2,2,2-trifluoroethyl)amino)propanamido)-2-phenylethyl)boronic acid], the concentration for half-maximal inhibition (IC50) was 362 nM in assay [1] and 11 nM in assay [2].
As for `CC(C)C=C(C#N)C(=O)N(C)c1cccc(C[C@H](NCC(F)(F)F)C(=O)N[C@@H](CC(C)C)B(O)O)c1` [Example 27, ((R)-1-((S)-3-(3-(2-cyano-N,4-dimethylpent-2-enamido)phenyl)-2-((2,2,2-trifluoroethyl)amino)propanamido)-3-methylbutyl)boronic acid], the values for the concentration for half-maximal inhibition (IC50) in assay [1] and in assay [2] were 175 nM and 72 nM, respectively.
Regarding `CC(C)C=C(C#N)C(=O)N1CCC[C@@H]1COC[C@H](NCC(F)(F)F)C(=O)N[C@@H](CC(C)C)B(O)O` [Example 28], the IC50 amounted to 294 nM in assay [1] and 46 nM in assay [2].
As for `CCc1cccc(C[C@H](NC(=O)[C@H](COC[C@H]2CCCN2C(=O)C(C#N)=CC(C)C)NCC(F)(F)F)B(O)O)c1` [Example 30, ((R)-1-((S)-3-(((R)-1-(2-cyano-4-methylpent-2-enoyl)pyrrolidin-2-yl)methoxy)-2-((2,2,2-trifluoroethyl)amino)propanamido)-2-(3-ethylphenyl)ethyl)boronic acid], the half-inhibitory concentration (IC50) stood at 1830 nM in assay [1] and 87 nM in assay [2].
In the same order, the values of `CC(C)C=C(C#N)C(=O)N1CCC[C@@H]1COC[C@H](NCC(F)(F)F)C(=O)N[C@@H](Cc1coc2ccccc12)B(O)O` [Example 31, ((R)-2-(benzofuran-3-yl)-1-((S)-3-(((R)-1-(2-cyano-4-methylpent-2-enoyl)pyrrolidin-2-yl)methoxy)-2-((2,2,2-trifluoroethyl)amino)propanamido)ethyl)boronic acid] are 39.4 nM and 11.6 nM.
For the compound `CC(C)(C=C(C#N)C(=O)N1CCC[C@@H]1CNC(=O)N[C@@H](Cc1coc2ccccc12)B(O)O)N1CCC(F)(F)CC1` [Example 49, ((R)-2-(benzofuran-3-yl)-1-(3-(((R)-1-(2-cyano-4-(4,4-difluoropiperidin-1-yl)-4-methylpent-2-enoyl)pyrrolidin-2-yl)methyl)ureido)ethyl)boronic acid], the IC50 in assay [1] amounted to 1810 nM; in assay [2], 5.3 nM.
As to `CC(C)(C=C(C#N)C(=O)N1CCC[C@@H]1CNC(=O)N[C@@H](Cc1coc2ccccc12)B(O)O)N1CCC(F)(F)C1` [Example 50, ((R)-2-(benzofuran-3-yl)-1-(3-(((R)-1-(2-cyano-4-(3,3-difluoropyrrolidin-1-yl)-4-methylpent-2-enoyl)pyrrolidin-2-yl)methyl)ureido)ethyl)boronic acid], the results for the IC50 in assay [1] and in assay [2] were 1200 nM and 4 nM, respectively.
The like results for `C=CC(=O)N1CC[C@H]1COC(=O)N[C@@H](Cc1ccccc1)B(O)O` [Example 51, ((R)-1-(((((S)-1-acryloylazetidin-2-yl)methoxy)carbonyl)amino)-2-phenylethyl)boronic acid] were, in that order, 1430 nM and 256 nM.
The like results for `Cc1ccc(C[C@H](NC(=O)OC[C@H]2CCCN(C(=O)C(C#N)=CC(C)(C)N3CCC(F)(F)C3)C2)B(O)O)cc1` [Example 52, ((R)-1-(((((S)-1-(2-cyano-4-(3,3-difluoropyrrolidin-1-yl)-4-methylpent-2-enoyl)piperidin-3-yl)methoxy)carbonyl)amino)-2-(p-tolyl)ethyl)boronic acid] were, in that order, 715 nM and 1.7 nM.
In the same order, the values of `CC(C)(C=C(C#N)C(=O)N1CCC[C@H](COC(=O)N[C@@H](Cc2ccccc2)B(O)O)C1)N1CCC(F)(F)C1` [Example 53, ((R)-1-(((((S)-1-(2-cyano-4-(3,3-difluoropyrrolidin-1-yl)-4-methylpent-2-enoyl)piperidin-3-yl)methoxy)carbonyl)amino)-2-phenylethyl)boronic acid] are more than 5000 nM and 4.4 nM.
With `CC(C)(C=C(C#N)C(=O)N1CC[C@@H]1COC(=O)N[C@@H](Cc1ccccc1)B(O)O)N1CCC(F)(F)C1` [Example 54, ((R)-1-(((((R)-1-(2-cyano-4-(3,3-difluoropyrrolidin-1-yl)-4-methylpent-2-enoyl)azetidin-2-yl)methoxy)carbonyl)amino)-2-phenylethyl)boronic acid], the IC50 worked out at 504 nM in assay [1] and 2.7 nM in assay [2].
In the same order, the values of `CC(C)(C=C(C#N)C(=O)N1CCC[C@@H](OC(=O)N[C@@H](Cc2ccccc2)B(O)O)C1)N1CCC(F)(F)C1` [Example 55, ((R)-1-(((((R)-1-(2-cyano-4-(3,3-difluoropyrrolidin-1-yl)-4-methylpent-2-enoyl)piperidin-3-yl)oxy)carbonyl)amino)-2-phenylethyl)boronic acid] are 3880 nM and 5.1 nM.
In the same order, the values of `CC(C)(C=C(C#N)C(=O)N1CCC[C@H](CC(=O)N[C@@H](Cc2ccccc2)B(O)O)C1)N1CCC(F)(F)C1` [Example 56, ((R)-1-(2-((R)-1-(2-cyano-4-(3,3-difluoropyrrolidin-1-yl)-4-methylpent-2-enoyl)piperidin-3-yl)acetamido)-2-phenylethyl)boronic acid] are 255 nM and 9.9 nM.
The like results for `CC(C)(C=C(C#N)C(=O)N1CCO[C@H](CC(=O)N[C@@H](Cc2ccccc2)B(O)O)C1)N1CCC(F)(F)C1` [Example 58, ((R)-1-(2-((R)—4-(2-cyano-4-(3,3-difluoropyrrolidin-1-yl)-4-methylpent-2-enoyl)morpholin-2-yl)acetamido)-2-phenylethyl)boronic acid] were, in that order, 139 nM and 10 nM.
For the compound `CC(C)(C=C(C#N)C(=O)N1CCC[C@@H](CC(=O)N[C@@H](Cc2ccccc2)B(O)O)C1)N1CCC(F)(F)C1` [Example 59, ((R)-1-(2-((S)-1-(2-cyano-4-(3,3-difluoropyrrolidin-1-yl)-4-methylpent-2-enoyl)piperidin-3-yl)acetamido)-2-phenylethyl)boronic acid], the IC50 in assay [1] came to 163 nM; in assay [2], 21 nM.
The like results for `CC(C)(C=C(C#N)C(=O)N1CCC[C@H](OC(=O)N[C@@H](Cc2ccccc2)B(O)O)C1)N1CCC(F)(F)C1` [Example 60, ((R)-1-(((((S)-1-(2-cyano-4-(3,3-difluoropyrrolidin-1-yl)-4-methylpent-2-enoyl)piperidin-3-yl)oxy)carbonyl)amino)-2-phenylethyl)boronic acid] were, in that order, 463 nM and 1.4 nM.
As to `CC(C)(C=C(C#N)C(=O)N1CCO[C@@H](CC(=O)N[C@@H](Cc2ccccc2)B(O)O)C1)N1CCC(F)(F)C1` [Example 61, ((R)-1-(2-((S)-4-(2-cyano-4-(3,3-difluoropyrrolidin-1-yl)-4-methylpent-2-enoyl)morpholin-2-yl)acetamido)-2-phenylethyl)boronic acid], the IC50 in assay [1] is 186 nM; in assay [2] it was 11 nM.
The like results for `C=CC(=O)N1CC[C@@H]1COC(=O)N[C@@H](Cc1coc2ccccc12)B(O)O` [Example 62, ((R)-1-(((((R)-1-acryloylazetidin-2-yl)methoxy)carbonyl)amino)-2-(benzofuran-3-yl)ethyl)boronic acid] were, in that order, 126 nM and 2.3 nM.
As to `C=CC(=O)N1C2CCC1(COC(=O)N[C@@H](Cc1coc3ccccc13)B(O)O)CC2` [Example 63, (R)-(1-((((7-acryloyl-7-azabicyclo[2.2.1]heptan-1-yl)methoxy)carbonyl)amino)-2-(benzofuran-3-yl)ethyl)boronic acid], the figures for the IC50 in assay [1] and in assay [2] were 465 nM and 2 nM, respectively.
Take `CN(C[C@H]1CCCCN1C(=O)C(C#N)=CC(C)(C)N1CCC(F)(F)C1)C(=O)N[C@@H](Cc1ccccc1)B(O)O` [Example 64]: the IC50 in assay [1] and in assay [2] was more than 5000 nM throughout.
Consider `C=CC(=O)N1CCC[C@H](OC(=O)N[C@@H](Cc2coc3ccccc23)B(O)O)C1` [Example 65, ((R)-1-(((((S)-1-acryloylpiperidin-3-yl)oxy)carbonyl)amino)-2-(benzofuran-3-yl)ethyl)boronic acid], for which the IC50 came out at 418 nM in assay [1] and 7.5 nM in assay [2].
Turning to `C=CC(=O)N1CCC[C@H](OC(=O)N[C@@H](Cc2ccc(C(F)(F)F)cc2)B(O)O)C1` [Example 66, ((R)-1-(((((S)-1-acryloylpiperidin-3-yl)oxy)carbonyl)amino)-2-(4-(trifluoromethyl)phenyl)ethyl)boronic acid], the results for the IC50 in assay [1] and in assay [2] were more than 5000 nM and 148 nM, respectively.
The like results for `C=CC(=O)N1CCC[C@H](OC(=O)N[C@@H](Cc2ccccc2)B(O)O)C1` [Example 67, ((R)-1-(((((S)-1-acryloylpiperidin-3-yl)oxy)carbonyl)amino)-2-phenylethyl)boronic acid] were, in that order, more than 5000 nM and 249 nM.
The like results for `CC1(C)CCN(C(C)(C)C=C(C#N)C(=O)N2CCC[C@H](OC(=O)N[C@@H](Cc3coc4ccccc34)B(O)O)C2)C1` [Example 68, ((R)-2-(benzofuran-3-yl)-1-(((((S)-1-(2-cyano-4-(3,3-dimethylpyrrolidin-1-yl)-4-methylpent-2-enoyl)piperidin-3-yl)oxy)carbonyl)amino)ethyl)boronic acid] were, in that order, 1240 nM and 31.8 nM.

For orientation: IC50 means the concentration that gives 50% inhibition.
